US4853221A, “Method for treating non-small cell lung cancer, head and neck cancers and breast cancer” (Warner-Lambert Company, priority 1987, dated 1989)
pIC50: −log10 of the molar value.

Key:
[1] = test system: Early Stage P388 Leukemia; test: Combination chemotherapy, therapeutic synergy against early stage P388 leukemia; format: in vivo, mouse
Protocol: (§1) Several studies were carried out to determine the potential for therapeutic synergy of trimetrexate with several clinically active anticancer agents. […] (See, for example, Vendetti, "Relevance of Transplantable Animal-Tumor Systems to the Selection of New Agents for Clinical Trial," Pharmacological Basis of Cancer Chemotherapy. Williams and Wilkins, Baltimore, 1975, and Simpson Herren, et al., "Evaluation of In Vivo Tumor Models for Predicting Clinical Activity for Anticancer Drugs," Proc. Am. Assoc. Cancer Res., 26: 330 (1985).
(§2) Differences in cell kill of greater than ten-fold (one log) were considered indicative of therapeutic synergy.
(§3) CD2F1 mice were quarantined for at least two weeks prior to allocation to test groups. P388 leukemia was passaged in DBA2 mice according to standard protocols of the National Cancer Institute. On Day 0 of a given test, all mice in the test were randomized, injected intraperitoneally with suitably diluted ascites fluid from P388 tumor-bearing donor mice and rerandomized to test cages.
The initial inoculum for all but titration groups was 10^6 cells as determined by hemocytometer count. Each experiment contained an internal control and tumor titration which enabled the determination of the tumor doubling time and estimates of the log cell kill and number of tumor cells surviving treatment.
Drug treatment was begun either on Day 1 or on Day 4 depending upon the relative activity of the agents being tested.
All of the drugs were injected within one hour of dissolution, with the exception of trimetrexate which was made up fresh twice daily. All mice were treated on the basis of average cage-group weight.
In drug combination regimens, trimetrexate was given approximately 30 minutes before the other therapeutic agents when the route of administration of the other agent was ip. […]
(§4) Group average weights were determined for all groups on Days 1, 5, and 9 for "early stage" P388 tests and on Days 4, 8, and 12 for "advanced stage" P388 tests. Animals were monitored for life span. […]

[2] = test system: Advanced Stage P388 Leukemia; format: in vivo, mouse; details: Test 2
Protocol: as §1, §2, §3
The initial inoculum for all but titration groups was 10^6 cells as determined by hemocytometer count. […]
as §4

human tumor cultures = test: Human tumor cloning system, all tumors; format: cell-based
Source text: (§5) The activity of trimetrexate was compared with that of methotrexate in tests with a human tumor cloning system (Latham, et al., Proc. Am. Assoc. Cancer Res., 24: 278 (1983)). The data from these tests appear in Table III were the activities are expressed as the numbers of tumors with 50% or greater reduction in tumor colony forming units after one hour exposure to the drug.

B-Cell 8392 = test: Inhibition of B-Cell 8392 growth in vitro; format: cell-based, human; details: Homo sapiens, B-cell, 48 h, read-out: ED50
Protocol: (§6) Logarithmically growing L1210 cells (approximately 3×10^5 cells/ml) were diluted with Fischer's medium (containing 10% horse serum) to an approximate concentration of 5×10^4 cells/ml. Cells were planted in duplicate into 15 ml culture tubes containing either no drug or various amounts of drug, and incubated for 48 hours at 37° C. before being counted.
(§7) Trimetrexate was also evaluated in a similar manner side-by-side with methotrexate for its effect on the growth of three additional murine cell lines (L5178Y, Sarcoma-180, and Walkler-256) and three human cell lines (acute myelogenous leukemia K-562, T-cell 8402, and B-cell 8392), propagated in vitro.

Breast tumor = test: Human tumor cloning system, breast tumors; format: cell-based; details: methotrexate 0.3 μg/ml, one hour; 10 specimens
Source text: as §5

Colon tumor = test: Human tumor cloning system, colon tumors; format: cell-based; details: methotrexate 0.3 μg/ml, one hour; 9 specimens
Source text: as §5

AML K-562 = test: Inhibition of AML K-562 cell growth in vitro; format: cell-based, human; details: Homo sapiens, K562, 48 h, read-out: ED50
Protocol: as §6, §7

L1210 cells = test: Inhibition of L1210 cell growth in vitro; format: cell-based, murine; details: Mus musculus, L1210, 48 h, read-out: ED50 for L1210 Cells
Protocol: Two leukemia cell lines (L1210 and L5178Y) and two solid tumor cell lines (Sarcoma 180 and Walker 256) were used in these studies.
as §6
*ED50 = the concentration of drug required to reduce the cell count
to 50%, determined by plotting the cell count versus drug concentration.

Melanoma = test: Human tumor cloning system, melanoma; format: cell-based; details: methotrexate 0.3 μg/ml, one hour; 5 specimens
Source text: as §5

Ovarian tumor = test: Human tumor cloning system, ovarian tumors; format: cell-based; details: methotrexate 0.3 μg/ml, one hour; 6 specimens
Source text: as §5

Renal tumor = test: Human tumor cloning system, renal tumors; format: cell-based; details: methotrexate 0.3 μg/ml, one hour; 6 specimens
Source text: as §5

Lung tumor = test: Human tumor cloning system, lung tumors; format: cell-based; details: methotrexate 0.3 μg/ml, one hour; 8 specimens
Source text: as §5

Miscell. tumors = test: Human tumor cloning system, miscellaneous tumors; format: cell-based; details: methotrexate 0.3 μg/ml, one hour; 10 specimens
Source text: as §5

T-Cell 8402 = test: Inhibition of T-Cell 8402 growth in vitro; format: cell-based, human; details: Homo sapiens, T-cell, 48 h, read-out: ED50
Protocol: as §6, §7

## CC[C@]1(O)C[C@H]2CN(CCc3c([nH]c4ccccc34)[C@@](C(=O)OC)(c3cc4c(cc3OC)N(C=O)[C@H]3[C@@](O)(C(=O)OC)[C@H](OC(C)=O)[C@]5(CC)C=CCN6CC[C@]43[C@@H]65)C2)C1 [Vincristine, 22-Oxo-vincaleukoblastine]
[1]; Test 2
  single agent activity: the more active of the single agents

## N.N.[Cl][Pt][Cl] [Cisplatin, cis-Diamminedichloroplatinum (II)]
[2]
  single agent activity: considerably less active as a single agent

## COc1cccc2c1C(=O)c1c(O)c3c(c(O)c1C2=O)C[C@@](O)(C(=O)CO)C[C@@H]3O[C@H]1C[C@H](N)[C@H](O)[C@H](C)O1 [Doxorubicin, (8S,10S)-10-[(3-Amino-2,3,6-trideoxy-α-L-lyxo-hexopyranosyl)oxy]-8-glycoloyl-7,8,9,10-tetrahydro-6,8,11-trihydroxy-1-methoxy-5,12-naphthacenedione]
[1]; Test 1
  single agent activity: somewhat less active than expected

## CN(Cc1cnc2nc(N)nc(N)c2n1)c1ccc(C(=O)N[C@@H](CCC(=O)O)C(=O)O)cc1 [Methotrexate, N-[4-[[(2,4-diamino-6-pteridinyl)methyl]methylamino]benzoyl]-L-glutamic acid, reference compound]
Human tumor cultures; 4/54
  human tumor cultures sensitive to methotrexate and resistant to trimetrexate: 7%
Human tumor cultures; Totals, methotrexate 0.3 μg/ml, one hour, 54 specimens
  Number of Tumors with 50% or Greater Decrease in Tumor Colony Forming Units: 7
B-Cell 8392
  pIC50: 7.60
Breast tumor
  Number of Tumors with 50% or Greater Decrease in Tumor Colony Forming Units: 1
Colon tumor
  Number of Tumors with 50% or Greater Decrease in Tumor Colony Forming Units: 2
AML K-562
  pIC50: 7.30
L1210 cells
  pIC50: 8.10
Melanoma
  Number of Tumors with 50% or Greater Decrease in Tumor Colony Forming Units: 1
Ovarian tumor
  Number of Tumors with 50% or Greater Decrease in Tumor Colony Forming Units: 0
Renal tumor
  Number of Tumors with 50% or Greater Decrease in Tumor Colony Forming Units: 1
Lung tumor
  Number of Tumors with 50% or Greater Decrease in Tumor Colony Forming Units: 1
Miscell. tumors
  Number of Tumors with 50% or Greater Decrease in Tumor Colony Forming Units: 1
T-Cell 8402
  pIC50: 7.60
